# Measured values as given in ChEMBL document CHEMBL5465560, “Selectivity Literature for EUbOPEN Chemogenomic Library” (2024).
# What was measured:
# [1] = target: Serine/threonine-protein kinase 32C (Homo sapiens) (UniProt Q86UX6); assay: Selectivity interaction (KinomeScan (DiscoverX)) EUB0000607a STK32C; settings: at 10 µM
# [2] = target: T1, Testis-specific serine/threonine-protein kinase 1 (Homo sapiens) (UniProt Q9BXA7); assay: Selectivity interaction (KinomeScan (DiscoverX)) EUB0000655a TSSK1A; settings: at 10 µM
# T1 sequence (whole entry): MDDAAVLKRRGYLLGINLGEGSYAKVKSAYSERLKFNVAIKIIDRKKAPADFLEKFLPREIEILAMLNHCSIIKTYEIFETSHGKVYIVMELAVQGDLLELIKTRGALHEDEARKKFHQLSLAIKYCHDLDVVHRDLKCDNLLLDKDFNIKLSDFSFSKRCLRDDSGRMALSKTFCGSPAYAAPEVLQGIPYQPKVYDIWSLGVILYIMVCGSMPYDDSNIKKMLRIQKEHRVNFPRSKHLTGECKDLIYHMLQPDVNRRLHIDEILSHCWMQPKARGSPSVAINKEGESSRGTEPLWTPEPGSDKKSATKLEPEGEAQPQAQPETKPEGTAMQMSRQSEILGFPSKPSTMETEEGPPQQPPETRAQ
# [3] = target: T2, Serine/threonine-protein kinase Nek2 (Homo sapiens) (UniProt P51955); assay: Selectivity interaction (KinomeScan (DiscoverX)) EUB0000045b NEK2
# T2 sequence (whole entry): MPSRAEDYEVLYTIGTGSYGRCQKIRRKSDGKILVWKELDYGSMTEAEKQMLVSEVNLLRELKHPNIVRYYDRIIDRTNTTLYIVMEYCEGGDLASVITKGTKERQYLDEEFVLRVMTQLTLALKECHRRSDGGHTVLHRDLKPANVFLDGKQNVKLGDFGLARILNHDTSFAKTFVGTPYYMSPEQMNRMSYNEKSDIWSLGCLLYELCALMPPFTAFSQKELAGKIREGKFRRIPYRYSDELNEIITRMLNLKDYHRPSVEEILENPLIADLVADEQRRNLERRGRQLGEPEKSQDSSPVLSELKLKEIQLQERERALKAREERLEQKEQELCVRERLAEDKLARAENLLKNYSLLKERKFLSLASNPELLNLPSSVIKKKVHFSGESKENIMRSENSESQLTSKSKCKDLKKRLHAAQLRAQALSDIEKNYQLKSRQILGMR
# [4] = target: T3, Uncharacterized serine/threonine-protein kinase SBK3 (Homo sapiens) (UniProt P0C264); assay: Selectivity interaction (KinomeScan (DiscoverX)) EUB0000045b SBK3
# T3 sequence (whole entry): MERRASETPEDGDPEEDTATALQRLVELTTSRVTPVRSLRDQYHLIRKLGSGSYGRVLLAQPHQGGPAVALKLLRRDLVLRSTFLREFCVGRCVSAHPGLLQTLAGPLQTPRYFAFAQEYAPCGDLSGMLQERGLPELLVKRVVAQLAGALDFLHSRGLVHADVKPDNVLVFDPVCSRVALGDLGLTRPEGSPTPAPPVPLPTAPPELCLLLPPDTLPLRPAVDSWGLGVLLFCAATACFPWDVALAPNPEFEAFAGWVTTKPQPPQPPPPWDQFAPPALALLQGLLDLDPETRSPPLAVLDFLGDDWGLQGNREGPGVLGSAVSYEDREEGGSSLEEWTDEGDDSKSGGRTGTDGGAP
# [5] = target: T4, MAP/microtubule affinity-regulating kinase 4 (Homo sapiens) (UniProt Q96L34); assay: Selectivity interaction (KinomeScan (DiscoverX)) EUB0001079a MARK4; settings: at 1 µM
# T4 sequence (whole entry): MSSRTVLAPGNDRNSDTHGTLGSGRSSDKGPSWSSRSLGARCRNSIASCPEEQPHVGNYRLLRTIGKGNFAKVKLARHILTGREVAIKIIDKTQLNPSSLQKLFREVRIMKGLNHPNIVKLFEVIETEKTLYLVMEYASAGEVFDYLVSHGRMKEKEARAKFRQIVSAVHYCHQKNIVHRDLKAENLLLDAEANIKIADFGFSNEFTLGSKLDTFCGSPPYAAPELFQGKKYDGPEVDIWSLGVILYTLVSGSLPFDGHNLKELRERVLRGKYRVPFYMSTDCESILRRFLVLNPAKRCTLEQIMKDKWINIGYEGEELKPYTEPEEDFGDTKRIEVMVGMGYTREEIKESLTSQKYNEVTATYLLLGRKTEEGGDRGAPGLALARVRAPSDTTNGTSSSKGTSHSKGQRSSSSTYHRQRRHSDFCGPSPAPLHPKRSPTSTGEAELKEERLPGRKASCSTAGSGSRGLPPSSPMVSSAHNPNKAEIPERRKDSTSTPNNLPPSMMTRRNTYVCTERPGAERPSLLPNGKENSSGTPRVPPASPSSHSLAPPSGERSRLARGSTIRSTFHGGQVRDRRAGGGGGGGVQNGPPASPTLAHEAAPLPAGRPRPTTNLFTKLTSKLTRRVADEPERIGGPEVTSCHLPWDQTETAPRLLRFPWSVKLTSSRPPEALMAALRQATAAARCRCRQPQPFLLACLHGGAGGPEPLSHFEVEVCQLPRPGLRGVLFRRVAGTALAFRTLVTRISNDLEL
# [6] = target: Dual specificity protein kinase CLK2 (Homo sapiens, UniProt P49760); assay: Selectivity interaction (Enzymatic assay) EUB0001550a CLK2
# Dual specificity protein kinase CLK2, sequence (P49760 whole entry): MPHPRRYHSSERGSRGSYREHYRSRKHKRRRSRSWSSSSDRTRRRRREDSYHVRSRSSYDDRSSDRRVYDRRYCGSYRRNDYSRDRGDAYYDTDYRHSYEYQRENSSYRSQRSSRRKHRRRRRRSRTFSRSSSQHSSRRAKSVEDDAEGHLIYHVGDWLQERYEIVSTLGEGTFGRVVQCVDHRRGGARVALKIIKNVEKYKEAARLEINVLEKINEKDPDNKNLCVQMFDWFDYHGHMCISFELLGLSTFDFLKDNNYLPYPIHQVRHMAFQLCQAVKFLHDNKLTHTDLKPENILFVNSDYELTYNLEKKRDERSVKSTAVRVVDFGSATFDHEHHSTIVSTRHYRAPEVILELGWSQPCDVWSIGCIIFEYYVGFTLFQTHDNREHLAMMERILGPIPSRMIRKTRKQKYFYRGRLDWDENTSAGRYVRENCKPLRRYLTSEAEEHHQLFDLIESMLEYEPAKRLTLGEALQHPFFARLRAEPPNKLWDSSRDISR
# [7] = target: Serine/threonine-protein kinase MARK1 (Homo sapiens) (UniProt Q9P0L2); assay: Selectivity interaction (KinomeScan (DiscoverX)) EUB0000229b MARK1; settings: at 10 µM
# Serine/threonine-protein kinase MARK1 (Homo sapiens), sequence (Q9P0L2 whole entry, looked up, canonical isoform): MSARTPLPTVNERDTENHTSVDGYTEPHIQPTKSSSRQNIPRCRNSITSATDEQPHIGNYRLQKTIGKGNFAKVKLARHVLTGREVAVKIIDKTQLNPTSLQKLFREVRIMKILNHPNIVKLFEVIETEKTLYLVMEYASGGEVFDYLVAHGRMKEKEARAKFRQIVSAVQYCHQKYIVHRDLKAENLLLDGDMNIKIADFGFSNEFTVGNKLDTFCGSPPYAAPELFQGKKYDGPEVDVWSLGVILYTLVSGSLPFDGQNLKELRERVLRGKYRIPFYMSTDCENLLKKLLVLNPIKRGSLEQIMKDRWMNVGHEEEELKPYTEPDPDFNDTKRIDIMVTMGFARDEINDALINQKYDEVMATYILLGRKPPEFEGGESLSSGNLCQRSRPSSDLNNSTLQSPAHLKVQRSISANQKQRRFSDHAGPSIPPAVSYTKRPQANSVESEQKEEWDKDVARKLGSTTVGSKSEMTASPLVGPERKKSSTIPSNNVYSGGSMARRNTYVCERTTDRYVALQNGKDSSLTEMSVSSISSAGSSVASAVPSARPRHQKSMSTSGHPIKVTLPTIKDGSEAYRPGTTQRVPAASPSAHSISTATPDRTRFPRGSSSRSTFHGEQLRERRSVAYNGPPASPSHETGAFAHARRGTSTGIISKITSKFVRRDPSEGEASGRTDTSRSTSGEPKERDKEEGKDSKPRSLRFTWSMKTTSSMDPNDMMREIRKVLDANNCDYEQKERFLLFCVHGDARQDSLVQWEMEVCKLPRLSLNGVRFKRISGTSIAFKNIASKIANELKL
# [8] = test system: Phosphatidylinositol 4,5-bisphosphate 3-kinase catalytic subunit alpha isoform (Homo sapiens), P42336 [E542K]; assay: (§1) Selectivity interaction (KinomeScan (DiscoverX)) EUB0000229b PIK3CA; settings: at 1 µM
# Phosphatidylinositol 4,5-bisphosphate 3-kinase catalytic subunit alpha isoform (Homo sapiens), P42336 [E542K], sequence (P42336 whole entry E542K, canonical isoform): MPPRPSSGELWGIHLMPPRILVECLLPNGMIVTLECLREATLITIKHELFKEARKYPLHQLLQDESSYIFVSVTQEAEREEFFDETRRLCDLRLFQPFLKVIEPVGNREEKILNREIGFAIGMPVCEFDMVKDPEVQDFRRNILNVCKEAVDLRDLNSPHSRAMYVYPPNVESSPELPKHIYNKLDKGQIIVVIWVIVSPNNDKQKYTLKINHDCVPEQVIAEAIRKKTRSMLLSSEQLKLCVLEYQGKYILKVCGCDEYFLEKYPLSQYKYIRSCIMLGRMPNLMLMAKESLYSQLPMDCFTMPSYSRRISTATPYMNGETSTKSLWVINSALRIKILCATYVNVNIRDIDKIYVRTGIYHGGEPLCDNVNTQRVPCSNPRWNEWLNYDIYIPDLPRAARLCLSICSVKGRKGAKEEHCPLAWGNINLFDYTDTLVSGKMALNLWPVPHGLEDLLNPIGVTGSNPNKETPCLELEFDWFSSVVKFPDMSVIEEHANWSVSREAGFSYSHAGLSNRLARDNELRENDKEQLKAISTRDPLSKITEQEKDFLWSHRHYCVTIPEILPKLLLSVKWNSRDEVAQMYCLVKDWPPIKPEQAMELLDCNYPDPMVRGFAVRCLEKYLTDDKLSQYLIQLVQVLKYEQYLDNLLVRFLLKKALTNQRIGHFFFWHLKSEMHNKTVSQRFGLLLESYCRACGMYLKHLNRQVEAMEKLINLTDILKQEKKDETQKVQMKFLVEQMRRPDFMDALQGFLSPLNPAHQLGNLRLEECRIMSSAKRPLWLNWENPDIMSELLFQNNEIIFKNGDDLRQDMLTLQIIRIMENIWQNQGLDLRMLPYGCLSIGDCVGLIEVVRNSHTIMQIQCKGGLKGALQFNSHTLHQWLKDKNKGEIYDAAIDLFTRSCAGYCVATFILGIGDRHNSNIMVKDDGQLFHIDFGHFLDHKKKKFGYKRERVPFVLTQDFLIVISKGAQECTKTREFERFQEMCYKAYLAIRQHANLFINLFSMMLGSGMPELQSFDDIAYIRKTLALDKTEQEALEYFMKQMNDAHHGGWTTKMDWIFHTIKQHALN
# [9] = test system: Phosphatidylinositol 4,5-bisphosphate 3-kinase catalytic subunit alpha isoform (Homo sapiens), P42336 [E545A]; assay: as §1; settings: at 1 µM
# [10] = test system: Phosphatidylinositol 4,5-bisphosphate 3-kinase catalytic subunit alpha isoform (Homo sapiens), P42336 [H1047L]; assay: as §1; settings: at 1 µM
# [11] = target: Phosphatidylinositol 4,5-bisphosphate 3-kinase catalytic subunit alpha isoform (Homo sapiens) (UniProt P42336); assay: as §1; settings: at 10 µM
# [12] = test system: Phosphatidylinositol 4,5-bisphosphate 3-kinase catalytic subunit alpha isoform (Homo sapiens), P42336 [Q546K]; assay: as §1; settings: at 1 µM
# [13] = test system: Phosphatidylinositol 4,5-bisphosphate 3-kinase catalytic subunit alpha isoform (Homo sapiens), P42336 [M1043I]; assay: as §1; settings: at 1 µM
# [14] = test system: Phosphatidylinositol 4,5-bisphosphate 3-kinase catalytic subunit alpha isoform (Homo sapiens), P42336 [I800L]; assay: as §1; settings: at 1 µM
# [15] = test system: Phosphatidylinositol 4,5-bisphosphate 3-kinase catalytic subunit alpha isoform (Homo sapiens), P42336 [H1047Y]; assay: as §1; settings: at 1 µM
# [16] = test system: Phosphatidylinositol 4,5-bisphosphate 3-kinase catalytic subunit alpha isoform (Homo sapiens), P42336 [C420R]; assay: as §1; settings: at 1 µM
# [17] = test system: Phosphatidylinositol 4,5-bisphosphate 3-kinase catalytic subunit alpha isoform (Homo sapiens), P42336 [E545K]; assay: as §1; settings: at 1 µM
# Phosphatidylinositol 4,5-bisphosphate 3-kinase catalytic subunit alpha isoform (Homo sapiens), P42336 [E545K], sequence (P42336 whole entry E545K, canonical isoform): as the sequence (P42336 whole entry E542K, canonical isoform) above, with K542E, E545K counted along it
# [18] = target: Mitogen-activated protein kinase kinase kinase kinase 5 (Homo sapiens) (UniProt Q9Y4K4); assay: Selectivity interaction (ActivX KiNativ screen (ex vivo kinase selectivity in human PBMCs)) EUB0001619a MAP4K5; type: cell-based; settings: PBMC, at 1 µM
# Mitogen-activated protein kinase kinase kinase kinase 5 (Homo sapiens), sequence (Q9Y4K4 whole entry, looked up): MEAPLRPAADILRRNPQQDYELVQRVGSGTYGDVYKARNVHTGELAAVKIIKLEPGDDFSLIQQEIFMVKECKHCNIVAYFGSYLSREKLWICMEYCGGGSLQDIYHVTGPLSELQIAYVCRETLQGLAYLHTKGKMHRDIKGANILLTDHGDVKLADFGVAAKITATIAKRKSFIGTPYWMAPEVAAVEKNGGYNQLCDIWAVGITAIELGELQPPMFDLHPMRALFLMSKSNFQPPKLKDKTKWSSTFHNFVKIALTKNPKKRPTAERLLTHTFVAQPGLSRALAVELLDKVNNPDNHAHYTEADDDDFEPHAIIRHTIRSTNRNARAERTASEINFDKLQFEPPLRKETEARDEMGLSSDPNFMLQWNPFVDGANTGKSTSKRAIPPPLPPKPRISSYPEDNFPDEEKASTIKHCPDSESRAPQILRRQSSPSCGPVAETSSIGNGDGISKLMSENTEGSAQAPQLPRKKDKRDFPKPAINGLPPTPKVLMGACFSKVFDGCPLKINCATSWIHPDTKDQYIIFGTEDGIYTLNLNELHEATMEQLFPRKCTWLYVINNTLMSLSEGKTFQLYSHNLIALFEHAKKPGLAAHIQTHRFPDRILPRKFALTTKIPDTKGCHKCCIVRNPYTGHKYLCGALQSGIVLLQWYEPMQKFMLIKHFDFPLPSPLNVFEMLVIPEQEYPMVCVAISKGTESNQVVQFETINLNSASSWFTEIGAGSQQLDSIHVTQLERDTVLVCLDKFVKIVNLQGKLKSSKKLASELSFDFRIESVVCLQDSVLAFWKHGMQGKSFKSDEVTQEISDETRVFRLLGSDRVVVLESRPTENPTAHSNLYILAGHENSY
# Serine/threonine-protein kinase 32C (Homo sapiens), sequence (Q86UX6 whole entry): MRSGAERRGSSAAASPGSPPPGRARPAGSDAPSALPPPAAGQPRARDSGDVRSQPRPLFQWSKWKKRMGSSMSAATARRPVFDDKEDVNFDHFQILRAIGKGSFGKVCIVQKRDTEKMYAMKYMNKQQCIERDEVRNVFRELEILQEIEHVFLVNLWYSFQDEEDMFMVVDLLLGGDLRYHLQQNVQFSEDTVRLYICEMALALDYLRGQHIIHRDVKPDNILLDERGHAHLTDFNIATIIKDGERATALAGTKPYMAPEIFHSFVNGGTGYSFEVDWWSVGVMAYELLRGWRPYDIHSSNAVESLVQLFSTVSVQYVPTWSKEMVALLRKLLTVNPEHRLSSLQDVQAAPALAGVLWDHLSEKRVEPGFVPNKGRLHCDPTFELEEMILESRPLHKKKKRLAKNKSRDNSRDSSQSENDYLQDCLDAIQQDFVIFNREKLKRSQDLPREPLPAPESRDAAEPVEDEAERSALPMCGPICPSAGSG
smiles,measurement,setting,value
CNC(=O)Nc1ccc(-c2nc(N3CC4CCC(C3)O4)c3cnn(C4CCC5(CC4)OCCO5)c3n2)cc1,% of control,[1],90%
CN(C)CCOc1ccc(-c2nc(-c3ccncc3)c(-c3ccc4c(c3)CC/C4=N\O)[nH]2)cc1,% of control,[2],86%
C=CC(=O)Nc1cc(-n2c(=O)ccc3cnc4ccc(-c5ccc(NS(C)(=O)=O)cc5)cc4c32)ccc1C,% of control,[3]; at 1 µM,79%
same,% of control,[3]; at 10 µM,85%
same,% of control,[4]; at 1 µM,100%
same,% of control,[4]; at 10 µM,100%
Nc1cnc(N2CCc3cc(S(=O)(=O)Nc4c(F)cc(Cl)cc4F)cc(N4CCCC4=O)c32)nc1 [TP-020n],% of control,[5],79%
CN(C)CC#Cc1ccc2[nH]c3c(c2c1)-c1nc(N)ncc1CCC3,IC50,[6],0.29 µM
COc1cc(N(C)c2ccnc3ccc(C(F)(F)F)cc23)cc(OC)c1OC,% binding,[7],98%
same,% binding,[8],90%
same,% binding,[9],67%
same,% binding,[10],63%
same,% binding,[11],100%
same,% binding,[12],81%
same,% binding,[13],87%
same,% binding,[14],72%
same,% binding,[15],90%
same,% binding,[16],87%
same,% binding,[17],76%
N#Cc1cccc(-c2c[nH]c3ncnc(N4CCOCC4)c23)c1,% of inhibition,[18],-13%
